# Legend:
# [1] = system: Pseudomonas aeruginosa No. 12; assay: Enhancement of nonspecific resistance to bacterial infections; type: in vivo, Std-ddY strain mice; conditions: survivors 7 days after infection, mice
# Experimental: Male Std-ddY strain mice weighing about 23 g were used. Test compounds were dissolved in physiological saline and intravenously administered to the animals 72, 48 and 24 hours before the intraperitoneal infection with Pseudomonas aeruginosa No. 12 (inoculum size: 2×10^6 cells/mouse). The number of survivors were recorded 7 days after the infection.
# [2] = system: antiovalbumin antibody; assay: Immunostimulant (immunoadjuvant) activity: production of humoral antibody; type: in vivo, Hartley strain guinea pigs; conditions: guinea pigs bled 4 weeks after sensitization with 1 mg ovalbumin + 100 μg test compound
# Experimental: (§1) The animals sensitized were prepared as follows. Groups of 5 female Hartley strain guinea pigs, weighing 200 to 300 g, were injected in the left hind food-pad with 0.2 ml of a water-in-oil emulsion containing 1 mg of crystalline ovalbumin as antigen and 100 μg of test compound. The water-in-oil emulsion consisted of Drakeol 6VR (Pennsylvania Refining Co., U.S.A.), Arlacel A (Atlas Chemical Industries Inc., U.S.A.) and 1/75M phosphate-buffered physiological saline (pH 7.0) in a ratio of 4:1:5 by volume. Control guinea pigs were injected with a water-in-oil emulsion of similar composition containing the antigen but not test compound (Freund's incomplete adjuvant).
# To test for the enhancement of production of humoral antibody, 4 weeks after the sensitization the guinea pigs were bled by cardiac puncture. The levels of antiovalbumin antibody nitrogen were measured quantitatively using a spectrophotometric technique.
# [3] = system: delayed-type hypersensitivity to ovalbumin; assay: Immunostimulant (immunoadjuvant) activity: corneal response; type: in vivo, Hartley strain guinea pigs; conditions: grade 0 to 3.0; guinea pigs sensitized with 1 mg ovalbumin + 100 μg test compound in water-in-oil emulsion; intracorneal ovalbumin 2 weeks after sensitization, read after 48 hours
# Experimental: as §1
# To test for the induction of delayed-type hypersensitivity to ovalbumin, that is, the enhancement of cell-mediated immunity, 2 weeks after the sensitization the guinea pigs were given an intracorneal injection of ovalbumin solution (20 mg/ml saline) to make a transient disc of opacity of approximately 5 mm in diameter. The eyes were examined after 48 hours and the extent and degree of corneal opacity were recorded. The reactions were graded from 3.0, for a strong reaction where the whole cornea was thickened, opaque and grayish-white, to 1.0, where slight opacity was observed. When no visible difference from the uninjected eye was detected, the reaction was graded as 0.
# [4] = Solubility (physicochemical properties)
# [5] = system: delayed-type hypersensitivity to ovalbumin; assay: Immunostimulant (immunoadjuvant) activity: skin reaction; type: in vivo, Hartley strain guinea pigs; conditions: extent of induration; guinea pigs sensitized with 1 mg ovalbumin + 100 μg test compound; intradermal ovalbumin 3 weeks after sensitization, measured after 48 hours
# Experimental: as §1
# To test for the induction of delayed-type hypersensitivity to ovalbumin, 3 weeks after the sensitization the guinea pigs were given an intradermal injection of ovalbumin solution (0.1 mg/0.1 ml saline) at one hind foot-pad shaved with a clipper. The size of induration was measured after 48 hours. The extent of induration was calculated by the formula as described in Biken Journal, 20, pages 95-103 (1977).
# [6] = dose 0.0125 mg/kg i.v. 72, 48 and 24 hours before i.p. infection
# [7] = dose 0.05 mg/kg i.v. 72, 48 and 24 hours before i.p. infection
# [8] = dose 0.2 mg/kg i.v. 72, 48 and 24 hours before i.p. infection
# [9] = dose 0.8 mg/kg i.v. 72, 48 and 24 hours before i.p. infection
# [10] = dose 3.1 mg/kg i.v. 72, 48 and 24 hours before i.p. infection
# [11] = dose 12.5 mg/kg i.v. 72, 48 and 24 hours before i.p. infection
Compound,"Number of survivors/total number of test animals ([1]; dose 0.0031 mg/kg i.v. 72, 48 and 24 hours before i.p. infection)","Number of survivors/total number of test animals [1, 6]","Number of survivors/total number of test animals [1, 7]","Number of survivors/total number of test animals [1, 8]","Number of survivors/total number of test animals [1, 9]","Number of survivors/total number of test animals [1, 10]","Number of survivors/total number of test animals [1, 11]",Antibody nitrogen [2] [µg/mL],Corneal response [3],Solubility ([4]; in diethyl ether),"Solubility ([4]; in water, 50% C1-3 alcohol)",Skin reaction [5]
"CC(=O)N[C@H]1[C@H](O[C@H]2[C@H](O[C@H](C)C(=O)N[C@@H](C)C(=O)N[C@H](CCC(=O)N[C@@H](CCC[C@@H](N)C(N)=O)C(=O)O)C(N)=O)[C@@H](NC(C)=O)C(O)O[C@@H]2CO)O[C@H](CO)[C@@H](O)[C@@H]1O (stereo partly drawn) [GMP3 -A, β-N-acetylglucosaminyl-(1→4)-N-acetylmuramyl-L-alanyl-D-isoglu taminyl-(L)-meso-2,6-diaminopimelic acid-(D)-amide]",7/16,9/16,9/16,8/16,10/16,14/16,16/16,350 ± 50,2.2,insoluble,Soluble,2.5
"CC(=O)N[C@H]1[C@H](O[C@H]2[C@H](O[C@H](C)C(=O)N[C@@H](C)C(=O)N[C@H](CCC(=O)N[C@@H](CCC[C@@H](N)C(N)=O)C(=O)N[C@H](C)C(=O)O)C(N)=O)[C@@H](NC(C)=O)C(O)O[C@@H]2CO)O[C@H](CO)[C@@H](O)[C@@H]1O (stereo partly drawn) [GMP4 -A, β-N-acetylglucosaminyl-(1→4)-N-acetylmuramyl-L-alanyl-D-isoglu taminyl-(L)-meso-2,6-diaminopimelic acid-(D)-amide-(L)-D-alanine]",–,6/16,6/16,4/16,7/16,7/16,16/16,399 ± 90,2.0,insoluble,Soluble,3.7
"β-N-acetylglucosaminyl-(1→4)-N,6-O-diacetylmuramyl-L-alanyl-D- isoglutaminyl-(L)-meso-2,6-diaminopimelic acid-(D)-amide-(L)-D-alanine [GMP4 -B]",–,4/16,4/16,6/16,9/16,10/16,16/16,216 ± 57,2.2,–,–,3.7
"β-N-acetylglucosaminyl-(1→4)-N,6O-diacetylmuramyl-L-alanyl-D-i soglutaminyl-(L)-meso-2,6-diaminopimelic acid-(D)-amide [GMP3 -B]",–,5/16,7/16,9/16,10/16,12/16,16/16,250 ± 40,2.4,insoluble,Soluble,3.5

# Reference: patent US4515891A, “Process for the production of disaccharide-tripeptide and disaccharide-tetrapeptide” (priority 1982, dated 1985)
